# Reference: PubChem BioAssay (NCI)
#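 The compound was tested at five concentrations on cells cultured in 96-well plates, with a 48-hour exposure period. The concentration for 50% growth inhibition is given as GI50. Definition used: TGI = concentration required for complete inhibition of growth.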
# Legend:
# Assay in all cases: NCI tumour cell line growth inhibition, 48 h
# 786-0 renal = tested on: 786-0 renal
# A498 renal = tested on: A498 renal
# A549 NSCLC = tested on: A549 NSCLC
# ACHN renal = tested on: ACHN renal
# BT-549 breast = tested on: BT-549 breast
# CAKI-1 renal = tested on: CAKI-1 renal
# CCRF-CEM leukemia = tested on: CCRF-CEM leukemia
# COLO 205 colon = tested on: COLO 205 colon
# DU-145 prostate = tested on: DU-145 prostate
# EKVX NSCLC = tested on: EKVX NSCLC
# HCC-2998 colon = tested on: HCC-2998 colon
# HCT-116 colon = tested on: HCT-116 colon
# HCT-15 colon = tested on: HCT-15 colon
# HL-60(TB) leukemia = tested on: HL-60(TB) leukemia
# HOP-62 NSCLC = tested on: HOP-62 NSCLC
# HOP-92 NSCLC = tested on: HOP-92 NSCLC
# HS 578T breast = tested on: HS 578T breast
# HT29 colon = tested on: HT29 colon
# IGROV1 ovarian = tested on: IGROV1 ovarian
# K-562 leukemia = tested on: K-562 leukemia
# KM12 colon = tested on: KM12 colon
# LOX IMVI melanoma = tested on: LOX IMVI melanoma
# M14 melanoma = tested on: M14 melanoma
# MALME-3M melanoma = tested on: MALME-3M melanoma
# MCF7 breast = tested on: MCF7 breast
# MDA-MB-231 breast = tested on: MDA-MB-231 breast
# MDA-MB-435 = tested on: MDA-MB-435
# MOLT-4 leukemia = tested on: MOLT-4 leukemia
# NCI-H226 lung = tested on: NCI-H226 lung
# NCI-H460 lung = tested on: NCI-H460 lung
# NCI-H522 lung = tested on: NCI-H522 lung
# NCI/ADR-RES ovarian = tested on: NCI/ADR-RES ovarian
# OVCAR-3 ovarian = tested on: OVCAR-3 ovarian
# OVCAR-4 ovarian = tested on: OVCAR-4 ovarian
# OVCAR-5 ovarian = tested on: OVCAR-5 ovarian
# OVCAR-8 ovarian = tested on: OVCAR-8 ovarian
# PC-3 prostate = tested on: PC-3 prostate
# RPMI-8226 leukemia = tested on: RPMI-8226 leukemia
# RXF 393 renal = tested on: RXF 393 renal
# SF-268 CNS = tested on: SF-268 CNS
# SF-295 CNS = tested on: SF-295 CNS
# SF-539 CNS = tested on: SF-539 CNS
# SK-MEL-2 melanoma = tested on: SK-MEL-2 melanoma
# SK-MEL-28 melanoma = tested on: SK-MEL-28 melanoma
# SK-MEL-5 melanoma = tested on: SK-MEL-5 melanoma
# SK-OV-3 ovarian = tested on: SK-OV-3 ovarian
# SN12C renal = tested on: SN12C renal
# SNB-19 CNS = tested on: SNB-19 CNS
# SNB-75 CNS = tested on: SNB-75 CNS
# SR leukemia = tested on: SR leukemia
# SW-620 colon = tested on: SW-620 colon
# T-47D breast = tested on: T-47D breast
# TK-10 renal = tested on: TK-10 renal
# U251 CNS = tested on: U251 CNS
# UACC-257 melanoma = tested on: UACC-257 melanoma
# UACC-62 melanoma = tested on: UACC-62 melanoma
# UO-31 renal = tested on: UO-31 renal
smiles,measurement,setting,value
O=C1Nc2cc(Cl)ccc2/C1=C\c1ccc(OCc2ccc(Br)cc2F)cc1,GI50,786-0 renal,1.98 µM
same,TGI,786-0 renal,3.66 µM
same,GI50,A498 renal,2.5 µM
same,TGI,A498 renal,5.95 µM
same,GI50,A549 NSCLC,2.04 µM
same,TGI,A549 NSCLC,4.62 µM
same,GI50,ACHN renal,1.83 µM
same,TGI,ACHN renal,4.04 µM
same,GI50,BT-549 breast,2.1 µM
same,TGI,BT-549 breast,4.69 µM
same,GI50,CAKI-1 renal,1.67 µM
same,TGI,CAKI-1 renal,3.35 µM
same,GI50,CCRF-CEM leukemia,3.74 µM
same,TGI,CCRF-CEM leukemia,22 µM
same,GI50,COLO 205 colon,2.58 µM
same,TGI,COLO 205 colon,12.4 µM
same,GI50,DU-145 prostate,2.93 µM
same,TGI,DU-145 prostate,> 100 µM
same,GI50,EKVX NSCLC,3.85 µM
same,TGI,EKVX NSCLC,18 µM
same,GI50,HCC-2998 colon,4.14 µM
same,TGI,HCC-2998 colon,37.4 µM
same,GI50,HCT-116 colon,1.38 µM
same,TGI,HCT-116 colon,2.87 µM
same,GI50,HCT-15 colon,3.55 µM
same,TGI,HCT-15 colon,50.1 µM
same,GI50,HL-60(TB) leukemia,53 µM
same,TGI,HL-60(TB) leukemia,> 100 µM
same,GI50,HOP-62 NSCLC,1.79 µM
same,TGI,HOP-62 NSCLC,3.76 µM
same,GI50,HOP-92 NSCLC,1.22 µM
same,TGI,HOP-92 NSCLC,3.85 µM
same,GI50,HS 578T breast,1.91 µM
same,TGI,HS 578T breast,6.2 µM
same,GI50,HT29 colon,2.37 µM
same,TGI,HT29 colon,6.4 µM
same,GI50,IGROV1 ovarian,2.07 µM
same,TGI,IGROV1 ovarian,5.13 µM
same,GI50,K-562 leukemia,3.3 µM
same,TGI,K-562 leukemia,> 100 µM
same,GI50,KM12 colon,3.12 µM
same,TGI,KM12 colon,73.7 µM
same,GI50,LOX IMVI melanoma,1.49 µM
same,TGI,LOX IMVI melanoma,2.88 µM
same,GI50,M14 melanoma,2.27 µM
same,TGI,M14 melanoma,6.69 µM
same,GI50,MALME-3M melanoma,1.97 µM
same,TGI,MALME-3M melanoma,4.27 µM
same,GI50,MCF7 breast,1.25 µM
same,TGI,MCF7 breast,15.2 µM
same,GI50,MDA-MB-231 breast,2.2 µM
same,TGI,MDA-MB-231 breast,5.34 µM
same,GI50,MDA-MB-435,2.26 µM
same,TGI,MDA-MB-435,5.38 µM
same,GI50,MOLT-4 leukemia,3.57 µM
same,TGI,MOLT-4 leukemia,26.1 µM
same,GI50,NCI-H226 lung,2.19 µM
same,TGI,NCI-H226 lung,6.89 µM
same,GI50,NCI-H460 lung,0.459 µM
same,TGI,NCI-H460 lung,1.7 µM
same,GI50,NCI-H522 lung,1.8 µM
same,TGI,NCI-H522 lung,4.33 µM
same,GI50,NCI/ADR-RES ovarian,2.31 µM
same,TGI,NCI/ADR-RES ovarian,6 µM
same,GI50,OVCAR-3 ovarian,2.08 µM
same,TGI,OVCAR-3 ovarian,4.72 µM
same,GI50,OVCAR-4 ovarian,1.84 µM
same,TGI,OVCAR-4 ovarian,3.71 µM
same,GI50,OVCAR-5 ovarian,4.16 µM
same,TGI,OVCAR-5 ovarian,> 100 µM
same,GI50,OVCAR-8 ovarian,2.46 µM
same,TGI,OVCAR-8 ovarian,6.89 µM
same,GI50,PC-3 prostate,1.7 µM
same,TGI,PC-3 prostate,3.49 µM
same,GI50,RPMI-8226 leukemia,3.71 µM
same,TGI,RPMI-8226 leukemia,> 100 µM
same,GI50,RXF 393 renal,1.65 µM
same,TGI,RXF 393 renal,3.2 µM
same,GI50,SF-268 CNS,2.29 µM
same,TGI,SF-268 CNS,6.34 µM
same,GI50,SF-295 CNS,1.89 µM
same,TGI,SF-295 CNS,3.5 µM
same,GI50,SF-539 CNS,1.66 µM
same,TGI,SF-539 CNS,3.18 µM
same,GI50,SK-MEL-2 melanoma,2.97 µM
same,TGI,SK-MEL-2 melanoma,9.98 µM
same,GI50,SK-MEL-28 melanoma,2.84 µM
same,TGI,SK-MEL-28 melanoma,8.37 µM
same,GI50,SK-MEL-5 melanoma,5.53 µM
same,TGI,SK-MEL-5 melanoma,82.4 µM
same,GI50,SK-OV-3 ovarian,1.69 µM
same,TGI,SK-OV-3 ovarian,3.33 µM
same,GI50,SN12C renal,1.86 µM
same,TGI,SN12C renal,4.09 µM
same,GI50,SNB-19 CNS,1.92 µM
same,TGI,SNB-19 CNS,4.29 µM
same,GI50,SNB-75 CNS,1.81 µM
same,TGI,SNB-75 CNS,3.39 µM
same,GI50,SR leukemia,2.59 µM
same,TGI,SR leukemia,8.18 µM
same,GI50,SW-620 colon,1.9 µM
same,TGI,SW-620 colon,4.56 µM
same,GI50,T-47D breast,2.3 µM
same,TGI,T-47D breast,6.6 µM
same,GI50,TK-10 renal,2.51 µM
same,TGI,TK-10 renal,4.59 µM
same,GI50,U251 CNS,1.69 µM
same,TGI,U251 CNS,3.21 µM
same,GI50,UACC-257 melanoma,3.3 µM
same,TGI,UACC-257 melanoma,18.4 µM
same,GI50,UACC-62 melanoma,1.68 µM
same,TGI,UACC-62 melanoma,3.35 µM
same,GI50,UO-31 renal,1.49 µM
same,TGI,UO-31 renal,4.75 µM
